How the values were obtained:
sleep apnea = conditions: cited from earlier work; for effect in individuals with central apnea: central apneas
apnea = conditions: animal model of sleep apnea; cited from earlier work
[1] = test system: intertrigeminal region of the brainstem; conditions: administration into the brainstem; cited from earlier work
[2] = individuals with obstructive sleep apnea

Method for spontaneous apneas: Adult, male Sprague-Dawley rats (Sasco-King, Wilmington, Mass.; usually 8 per test group; 300 g) are maintained on a 12-hour light (08:00–20:00 hour)/12-hour dark (20:00–08:00 hour) cycle for one week, housed in individual cages and given ad libitum access to food and water. Following the one week of acclimatization, animals are subjected to the following surgical procedures.
Acclimatized animals are anesthetized for the implantation of cortical electrodes for electroencephalogram (EEG) recording and neck muscle electrodes for electromyogram (EMG) recording using a mixture of ketamine (Vedco, Inc., St. Joseph, Mo.; 100 mg/ml) and acetylpromazine (Vedco, Inc., St. Joseph, Mo.; 10 mg/ml; 4:1, volume/volume) at a volume of 1 ml/kg body weight. The surface of the skull is exposed surgically and cleaned with a 20% solution of hydrogen peroxide followed by a solution of 95% isopropyl alcohol. Next, a dental preparation of sodium fluoride (Flura-GEL®, Saslow Dental, Mt. Prospect, Ill.) is applied to harden the skull above the parietal cortex and allowed to remain in place for 5 minutes. The fluoride mixture is then removed from the skull above the parietal cortex. The EEG electrodes consisting of four stainless steel machine screws, having leads attached thereto, are threaded into the skull to rest on the dura over the parietal cortex. A thin layer of Justi® resin cement (Saslow Dental, Mt. Prospect, Ill.) is applied to cover the screw heads (of screws implanted in the skull) and surrounding skull to further promote the adhesion of the implant. EMG electrodes consisting of two ball-shaped wires are inserted into the bilateral-neck musculature. All leads (i.e., EEG and EMG leads) are soldered to a miniature connector (39F1401, Newark Electronics, Schaumburg, Ill.). Lastly, the entire assembly is fixed to the skull with dental cement.
After surgery, all animals are allowed to recover for one week before being subjected to another surgery that involved implantation of a radiotelemetry transmitter (TA11-PXT, Data Sciences International, St. Paul, Minn.) for monitoring blood pressure (BP) and heart period (HP), estimated as pulse interval. After the animals are anesthetized (as described above), the hair from the subxiphoid space to the pelvis is removed. The entire area is scrubbed with iodine and rinsed with alcohol and saline. A 4–6 cm midline abdominal incision is made to allow good visualization of the area from the bifurcation of the aorta to the renal arteries. A retractor is used to expose the contents of the abdomen and the intestine is held back using saline moistened gauze sponges. […]
Physiological parameters (see below) from each animal are recorded on numerous occasions in random order, with recordings for an individual animal separated by at least 3 days.

**Q.** Which results are given for CNCCCC1c2ccccc2C=Cc2ccccc21 [Protriptyline]?
**A.** effect in individuals with obstructive sleep apnea (OSAS) (sleep apnea): variable results; side effects (sleep apnea; several small trials in OSAS): frequent and significant side effects

**Q.** Which “effect in individuals with central apnea” value (sleep apnea) does the source give for CC(=O)Nc1nnc(S(N)(=O)=O)s1 [acetazolamide] here?
**A.** The value was “variable improvement”.

**Q.** What about the “effect in individuals with obstructive sleep apnea (OSAS)” value (“effect in individuals … (OSAS)” for short) (sleep apnea) of the same compound?
**A.** The value was “increase in obstructive apneas”.

**Q.** For Nc1ncnc2c1ncn2[C@@H]1O[C@H](CO)[C@@H](O)[C@H]1O [adenosine], which effect on apnea (apnea) is on record?
**A.** The effect on apnea was “somewhat effective in reducing apnea”.

**Q.** Which results are given for CCN1CC(CCN2CCOCC2)C(c2ccccc2)(c2ccccc2)C1=O (stereo not shown) [doxapram]?
**A.** average arterial oxygen saturation (sleep apnea; [2]): did not alter; length of apneas (sleep apnea; [2]): decrease the length of apneas

**Q.** Which “effect on breathing (reflex apneas)” value [1] does the source give for N[C@@H](CCC(=O)O)C(=O)O [glutamate] here?
**A.** The value was “provoked reflex apneas”.

**Q.** With C=CCN1CC[C@]23c4c5ccc(O)c4O[C@H]2C(=O)CC[C@@]3(O)[C@H]1C5 [naloxone] as the compound, how does the “effect in individuals … (OSAS)” value (sleep apnea) read?
**A.** The value was “only slightly helpful”.

**Q.** What does the source list for Nc1nc2ccc(OC(F)(F)F)cc2s1 [riluzole]?
**A.** average decrease in apnea expression (apneas per hour of NREM sleep) (spontaneous apneas; NREM sleep, 4.0 mg/kg intraperitoneal 15 min before 6 h recording, vs saline, p=0.05): 31%; animals with a decrease in apnea expression (spontaneous apneas; NREM sleep, 4.0 mg/kg intraperitoneal, vs saline): 5 of 7; average decrease in apnea expression (apneas per hour of REM sleep) (spontaneous apneas; REM sleep, 4.0 mg/kg intraperitoneal 15 min before 6 h recording, vs saline, p=0.11): 27%; overall effect on production of spontaneous sleep apneas (spontaneous apneas; both NREM and REM sleep): physiologically significant decrease

**Q.** With Cn1c(=O)c2[nH]cnc2n(C)c1=O [theophylline] as the compound, how does the “effect in individuals with central apnea” value (sleep apnea) read?
**A.** The value was “may benefit”.

**Q.** And the “effect in individuals … (OSAS)” value (sleep apnea)?
**A.** The value was “of no use”.

**Q.** For medroxyprogesterone, which “effect in individuals … (OSAS)” value (sleep apnea) is on record?
**A.** The value was “no consistent benefit”.

Source: patent US6974814B2, “Neuropharmacological treatment of sleep-related breathing disorders” (The Board of Trustees of the University of Illinois, priority 1999, dated 2005)
